In patent US20190183927A1, “MEDICAL AND NUTRITIONAL COMPOSITIONS AND METHODS OF USE” (Sulfilatec, Inc., priority 2016, published 2019):
Entries after “also recorded” stand apart in the source; their conditions may differ.

What was measured:
[1] = tested on: acute heart failure patients; settings: cited from earlier work
salt sensitive Dahl rats [2] = assay: Survival of salt sensitive Dahl rats on high salt (8% NaCl) diet with or without NaBr, 10 week study; format: in vivo, rat
Protocol: Control rats received AIN76A without supplemental chloride or bromide. 9 rats per study arm.
Dahl rats were administered a base diet of AIN76A with 8% NaCl, while a parallel arm was administered AIN76A with 8% NaCl and 300 mg of NaBr per kg of food. Mortality events were counted over the 10 week study.

[3] = tested on: spontaneously hypertensive rat (SHR); assay: 10 week daily dietary Br^− administration in SHR disease model (heart weight, survival, urinary protein); format: in vivo
Protocol: (FIG. 5 A-B) Heart and kidney weights from 10 week repeat dosing study in SHR model. Br^− administered daily via diet, with AIN-76a as base diet. WKY served as genetic control. Both kidneys per animal weighed together. […] (FIG. 5C-D) Heart and kidney weights from panels A-B normalized to body weight. […] (FIG. 5E) Rats were administered a diet of AIN76A with or without 10 mg NaBr per kg feed (“SHR” and “SHR+Br” study arms, […]). Survival probability was calculated between SHR rats receiving dietary Br— and SHR rats receiving AIN76A control diet over a 10 week study period. As a second control, Wistar Kyoto (WKY) rats were fed AIN76A control diet over the same period. 8 rats per study arm.
Eight SHR animals received AIN76A diet for 10 weeks while 8 SHR animals received AIN76A supplemented with 10 mg NaBr/kg diet.

[4] = tested on: spontaneously hypertensive rat (SHR); assay: Cardiac interstitial fibrosis, Masson's Trichrome staining, SHR; format: in vivo; settings: 10 mg NaBr per kg AIN-76a, 10 weeks, p<0.0001
Protocol: (§1) AIN-76A was base diet for all animals. […] Fibrosis determined from 5 μm tissue sections stained with Masson's Trichrome. […] Approximately 25-30 images were collected and processed per animal.
Following conclusion of the in vivo study, rat hearts were formalin-fixed, paraffin-embedded, and 5 μm-thick sections were obtained for histochemical analysis.

salt sensitive Dahl rats [5] = assay: Cardiac interstitial fibrosis, Masson's Trichrome staining, Dahl rats on high salt diet; format: in vivo, rat; settings: 300 mg NaBr per kg AIN-76a+8% NaCl, 10 weeks, p<0.0001
Protocol: as §1

[6] = tested on: spontaneously hypertensive rat (SHR); assay: Blood pressure and heart rate (tail cuff) after single IP administration of NaBr in SHR; format: in vivo; settings: single IP 154.5 μg NaBr per kg
Protocol: (A) In 10 week-old male SHR, single administration of Br^− reduced systolic and diastolic blood pressures compared to saline control. […] (C-D) Measured values for systolic (C) and diastolic (D) blood pressure, denoting statistical significance where achieved. 154.5 μg NaBr per kg rat body weight injected via IP. n=8 in Br Treatment group, =5 in saline control. BP & HR measured via tail cuff. *:p<0.05, T test.
(§2) The inventors next asked whether Br^− exerts any short-term activity in addition to the improved cardiac fibrosis noted after 10 weeks administration. Returning to the SHR preclinical model of disease, the inventors specifically asked whether Br^− administration modulates certain biomarkers associated with cardiovascular disease at one day post-administration. To this end, Br^− was administered to 8 SHR via intraperitoneal (IP) injection with an estimated 0.154 μg NaBr per gram body weight. For control, 8 SHR were administered saline via IP injection containing an estimated 4 ng NaBr per gram body weight. […] Moreover, the inventors believe that Br^− achieves its cardiovascular and renal therapeutic activities in part via modulation of natriuretic peptide signaling.

[7] = tested on: brain natriuretic peptide (BNP); assay: Serum BNP by ELISA after single IP administration of NaBr in SHR; format: in vivo, rat; settings: single IP 154.5 μg NaBr per kg, one day post-administration, p<0.05
Protocol: 154.5 μg NaBr per kg rat body weight injected via IP. n=8 in Br Treatment group, =5 in saline control. Baseline serum collection occurred two days prior to treatment. *: p<0.05, T test.
as §2

[8] = in vivo; cited from earlier work
[9] = dogs that do not respond to an initial course of Br^− treatment; cited from earlier work
[10] = humans, in some circumstances, due to renal reabsorption; cited from earlier work
[11] = Serum Br^− concentration in Dahl rats after 10 weeks on diet (mass spectrometry)
Protocol: (FIG. 2A) Serum Br^− concentrations from rats fed a daily diet over 10 weeks of “AIN-76A”, “AIN-76A+8% NaCl”, “AIN-76A+Br”, or “AIN-76A+8% NaCl+Br”. […] The two diets containing 8% NaCl (eg. “AIN-76A+8% NaCl” and “AIN-76A+8% NaCl+Br”) were fed to Dahl rats while the remaining two diets (eg. “AIN-76A” and “AIN-76A+Br”) were fed to SHR, as indicated in panel A. Serum Br^− measurements were determined using mass spectrometry.
Thus, Dahl rats were fed a diet supplemented with 8% NaCl (AIN76A base diet) over the course of 10 weeks.
To test the invention, another group of Dahl rats were administered AIN76A supplemented with 8% NaCl and 300 mg NaBr per kg of food. Considering that the rat body weights increased from around 300 g to around 400 g over the course of the study, and assuming that the rats ate a relatively constant amount of 25 g of food per day, the daily consumption of Br^− ranged from approximately 14.6 to 19.4 mg Br^− per kg body weight, in accordance with the invention.

[12] = Serum Br^− concentration in spontaneously hypertensive rats (SHR) after 10 weeks on diet, safety
Protocol: (FIG. 2A) Serum Br^− concentrations from rats fed a daily diet over 10 weeks of “AIN-76A”, “AIN-76A+8% NaCl”, “AIN-76A+Br”, or “AIN-76A+8% NaCl+Br”. Salt sensitive Dahl rats as well as Spontaneously Hypertensive Rats (SHR) were used in these studies. The two diets containing 8% NaCl (eg. “AIN-76A+8% NaCl” and “AIN-76A+8% NaCl+Br”) were fed to Dahl rats while the remaining two diets (eg. “AIN-76A” and “AIN-76A+Br”) were fed to SHR, as indicated in panel A. Serum Br^− measurements were determined using mass spectrometry.
Rats were administered 10 mg of NaBr per kg of AIN76A diet for 10 weeks. At the end of the study, serum Br^− levels in Br-treated rats were compared to serum Br^− levels in SHR on AIN76A as well as Wistar rats on AIN76A.

[13] = acute decompensated heart failure (Sackner-Bernstein et al. 2005)

## CC[C@H](C)[C@@H]1NC(=O)[C@H](CCCNC(=N)N)NC(=O)[C@H](CC(=O)O)NC(=O)[C@H](CCSC)NC(=O)[C@H](CCCNC(=N)N)NC(=O)CNC(=O)CNC(=O)[C@H](Cc2ccccc2)NC(=O)[C@@H](NC(=O)[C@H](CO)NC(=O)[C@H](CO)NC(=O)[C@H](CCCNC(=N)N)NC(=O)[C@H](CCCNC(=N)N)NC(=O)[C@H](CC(C)C)NC(=O)[C@@H](N)CO)CSSC[C@@H](C(=O)N[C@@H](CC(N)=O)C(=O)N[C@@H](CO)C(=O)N[C@@H](Cc2ccccc2)C(=O)N[C@@H](CCCNC(=N)N)C(=O)N[C@@H](Cc2ccc(O)cc2)C(=O)O)NC(=O)CNC(=O)[C@H](CC(C)C)NC(=O)CNC(=O)[C@H](CO)NC(=O)[C@H](CCC(N)=O)NC(=O)[C@H](C)NC(=O)CNC1=O [carperitide]
[1]; acute heart failure patients in Japan (Matsue et al. 2015)
  in-hospital mortality: increased in-hospital mortality

## [Br-].[Na+] [Br^−, sodium bromide]
Salt sensitive Dahl rats [2]; 9 rats per arm, p<0.001
  survival compared to High Salt alone (log rank test): significantly improved survival
Salt sensitive Dahl rats [2]; AIN76A+8% NaCl with or without 300 mg NaBr per kg feed, 10 weeks
  survival probability: 67%
[3]; 10 mg NaBr per kg AIN-76a, 10 weeks, vs SHR on AIN-76a alone, p<0.05
  heart weight (absolute): significantly reduced; also recorded: Statistically significant reduction
[3]; 10 mg NaBr/kg diet, 10 weeks
  treatment-induced mortality or electrolyte disturbances: No treatment-induced mortality or electrolyte disturbances
[3]; 10 week study, 8 rats per arm
  survival probability among groups: no statistical difference in survival
[3]; 10 weeks
  heart weight normalized to body weight: this trend was preserved; also recorded: Trends observed in absolute weights are preserved
[3]; after one day on study diet, persisted to end of study
  urinary microprotein/creatinine ratio (urinary protein levels): significantly lower; also recorded: significantly reduced
[4]
  cardiac fibrosis (Masson's Trichrome blue staining): dramatic reduction in blue staining; also recorded: less cardiac fibrosis
Salt sensitive Dahl rats [5]
  cardiac fibrosis (Masson's Trichrome blue staining): less cardiac fibrosis
[6]; one day post-administration, vs saline control
  systolic blood pressure: statistically significant reductions; also recorded: reduced
[6]; p=0.052
  heart rate: possible reduction
[6]; vs saline control
  diastolic blood pressure: reduced
[7]
  serum concentration of BNP peptide: statistically significant increase; also recorded: significantly modulated
[8]
  circulating Br^− level at which the anti-epilepsy effect occurs: > 6 mM
[9]
  therapeutic serum Br^− for sedative effect: above 25 mM
[10]
  half-life: ≥ 170 h
[11]; 10 weeks on diet, end of study
  mean serum Br^−: 246.50 µM
[11]; daily diet over 10 weeks
  toxicity assessment of serum Br^− concentrations: well below those levels required to induce bromide-associated toxicity
[12]; 10 mg NaBr per kg AIN76A diet, 10 weeks
  mean serum Br^−: 281.7 µM
[12]; daily diet over 10 weeks
  toxicity assessment of serum Br^− concentrations: below the toxicity threshold

## nesiritide
[1]; [13]
  mortality: increased mortality
  renal function: worsening renal function
